Calls of active or inactive are those of the source.
Tests used:
[1] = molecular target: T1, RNA-binding protein pos-1 (Caenorhabditis elegans, UniProt G5EF15); experiment: inhibitors of POS-1/mex-3 RNA binding, dose response, biochemical, fluorescence polarization (AID 1964);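 further: purified POS-1 fused to maltose binding protein made in E. coli; potency of compounds blocking POS-1 binding to fluorescent RNA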
T1 sequence (G5EF15 whole entry): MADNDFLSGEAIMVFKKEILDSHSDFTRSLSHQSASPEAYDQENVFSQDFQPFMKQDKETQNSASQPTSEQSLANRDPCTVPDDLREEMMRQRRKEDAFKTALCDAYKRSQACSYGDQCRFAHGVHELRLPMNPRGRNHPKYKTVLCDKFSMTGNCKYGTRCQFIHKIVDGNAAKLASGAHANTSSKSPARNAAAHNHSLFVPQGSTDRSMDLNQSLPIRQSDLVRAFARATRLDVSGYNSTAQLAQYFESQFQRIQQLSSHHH

[2] = molecular target: T2, Endoribonuclease toxin MazF (Escherichia coli K-12, UniProt P0AE70); experiment: MazF toxin RNase activators, dose response, biochemical, fluorescence, single-stranded RNA substrate, uHTS hits (AID 588481); format: functional
T2 sequence (P0AE70 whole entry): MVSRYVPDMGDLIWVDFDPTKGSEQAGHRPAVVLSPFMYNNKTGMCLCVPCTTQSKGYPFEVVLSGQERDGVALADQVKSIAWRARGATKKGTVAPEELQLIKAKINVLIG

[3] = molecular target: T2, Endoribonuclease toxin MazF; experiment: fluorescent RNA oligo signal without MazF, dose response, counter-screen for MazEF activator project, biochemical, fluorescence, single-stranded RNase substrate (AID 588502); format: functional
[4] = molecular target: T3, Zinc finger protein mex-5 (Caenorhabditis elegans, UniProt Q9XUB2); experiment: MEX-5/TCR-2 RNA interaction inhibitors, dose response, biochemical, C. elegans, fluorescence polarization (AID 1960)
T3 sequence (Q9XUB2 whole entry): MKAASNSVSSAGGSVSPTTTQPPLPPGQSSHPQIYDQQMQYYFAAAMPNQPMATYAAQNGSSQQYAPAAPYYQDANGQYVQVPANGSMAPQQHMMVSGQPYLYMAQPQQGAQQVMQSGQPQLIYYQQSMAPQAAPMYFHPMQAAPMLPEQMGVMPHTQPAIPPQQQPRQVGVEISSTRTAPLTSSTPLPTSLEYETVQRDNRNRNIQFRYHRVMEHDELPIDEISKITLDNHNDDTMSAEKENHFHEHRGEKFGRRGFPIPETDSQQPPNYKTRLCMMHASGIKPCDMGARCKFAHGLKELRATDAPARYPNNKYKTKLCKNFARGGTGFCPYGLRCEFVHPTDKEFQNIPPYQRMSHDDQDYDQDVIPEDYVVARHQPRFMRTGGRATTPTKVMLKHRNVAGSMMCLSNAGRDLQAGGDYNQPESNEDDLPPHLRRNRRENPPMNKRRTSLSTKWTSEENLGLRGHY

[5] = intracellular Trypanosoma cruzi inhibitors in host cells – cell-based, plate reader, cherry-pick samples, set 3, dose response (AID 651818); format: functional;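 further: compounds incubated with infected cells for about four days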
[6] = system: P388; experiment: cells; format: functional; details: Mus musculus
[7] = system: SN12K1; experiment: cells; format: functional; details: Homo sapiens, SN12K1
[8] = system: P388/ADR; experiment: cells; format: functional; details: Mus musculus
[9] = molecular target: T4, Sentrin-specific protease 7 (Homo sapiens, UniProt Q9BQF6); experiment: SENP7 protease inhibitors, SAR follow-up, biochemical, luminescence (AID 504497); format: functional
T4 sequence (Q9BQF6 whole entry): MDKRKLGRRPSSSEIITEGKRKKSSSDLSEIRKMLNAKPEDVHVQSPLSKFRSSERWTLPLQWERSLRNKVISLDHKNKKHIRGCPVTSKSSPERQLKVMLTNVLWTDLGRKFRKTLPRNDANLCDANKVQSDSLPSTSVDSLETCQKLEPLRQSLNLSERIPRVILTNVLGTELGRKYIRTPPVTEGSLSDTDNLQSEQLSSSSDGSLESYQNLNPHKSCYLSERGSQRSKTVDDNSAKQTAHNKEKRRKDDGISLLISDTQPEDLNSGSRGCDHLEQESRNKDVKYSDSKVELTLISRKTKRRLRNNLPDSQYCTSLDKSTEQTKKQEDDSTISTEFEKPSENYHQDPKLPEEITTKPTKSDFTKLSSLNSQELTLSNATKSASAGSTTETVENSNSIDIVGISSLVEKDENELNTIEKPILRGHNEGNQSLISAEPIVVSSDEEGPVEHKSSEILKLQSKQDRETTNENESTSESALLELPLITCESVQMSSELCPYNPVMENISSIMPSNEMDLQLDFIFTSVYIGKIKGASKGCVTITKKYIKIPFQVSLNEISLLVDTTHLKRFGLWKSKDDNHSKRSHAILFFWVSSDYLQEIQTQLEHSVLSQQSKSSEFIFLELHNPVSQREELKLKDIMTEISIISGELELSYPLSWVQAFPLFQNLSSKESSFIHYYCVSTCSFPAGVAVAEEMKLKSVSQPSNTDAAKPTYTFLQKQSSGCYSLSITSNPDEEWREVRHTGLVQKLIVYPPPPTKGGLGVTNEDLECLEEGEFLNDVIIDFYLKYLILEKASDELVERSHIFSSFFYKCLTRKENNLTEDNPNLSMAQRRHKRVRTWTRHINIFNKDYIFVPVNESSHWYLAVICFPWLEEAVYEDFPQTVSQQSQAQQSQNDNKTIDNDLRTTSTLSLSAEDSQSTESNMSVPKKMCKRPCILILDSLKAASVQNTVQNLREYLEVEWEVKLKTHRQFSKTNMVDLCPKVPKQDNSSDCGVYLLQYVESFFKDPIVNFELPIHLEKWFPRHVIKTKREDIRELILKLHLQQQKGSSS

[10] = molecular target: T5, Caspase-3 (Homo sapiens, UniProt P42574); experiment: SAR Analysis of small molecule inhibitors of Sentrin-specific proteases (SENPs) using a Caspase-3 Selectivity assay. [Related pubchem assays (depositor defined):AID2540, AID2599, AID434973, AID489001]; format: functional
T5 sequence (P42574 whole entry): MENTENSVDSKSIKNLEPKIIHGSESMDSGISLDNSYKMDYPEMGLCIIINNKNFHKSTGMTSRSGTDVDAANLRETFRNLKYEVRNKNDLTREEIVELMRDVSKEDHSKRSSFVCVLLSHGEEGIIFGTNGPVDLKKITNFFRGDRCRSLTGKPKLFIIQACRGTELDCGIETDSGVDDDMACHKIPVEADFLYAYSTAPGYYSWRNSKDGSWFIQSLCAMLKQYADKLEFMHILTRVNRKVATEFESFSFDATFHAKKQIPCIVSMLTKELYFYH

[11] = molecular target: T6, Sentrin-specific protease 6 (Homo sapiens, UniProt Q9GZR1); experiment: SAR Analysis of small molecule inhibitors of Sentrin-specific protease 6 (SENP6) using a Luminescent assay. [Related pubchem assays (depositor defined):AID2582, AID2599]; format: functional
T6 sequence (Q9GZR1 whole entry): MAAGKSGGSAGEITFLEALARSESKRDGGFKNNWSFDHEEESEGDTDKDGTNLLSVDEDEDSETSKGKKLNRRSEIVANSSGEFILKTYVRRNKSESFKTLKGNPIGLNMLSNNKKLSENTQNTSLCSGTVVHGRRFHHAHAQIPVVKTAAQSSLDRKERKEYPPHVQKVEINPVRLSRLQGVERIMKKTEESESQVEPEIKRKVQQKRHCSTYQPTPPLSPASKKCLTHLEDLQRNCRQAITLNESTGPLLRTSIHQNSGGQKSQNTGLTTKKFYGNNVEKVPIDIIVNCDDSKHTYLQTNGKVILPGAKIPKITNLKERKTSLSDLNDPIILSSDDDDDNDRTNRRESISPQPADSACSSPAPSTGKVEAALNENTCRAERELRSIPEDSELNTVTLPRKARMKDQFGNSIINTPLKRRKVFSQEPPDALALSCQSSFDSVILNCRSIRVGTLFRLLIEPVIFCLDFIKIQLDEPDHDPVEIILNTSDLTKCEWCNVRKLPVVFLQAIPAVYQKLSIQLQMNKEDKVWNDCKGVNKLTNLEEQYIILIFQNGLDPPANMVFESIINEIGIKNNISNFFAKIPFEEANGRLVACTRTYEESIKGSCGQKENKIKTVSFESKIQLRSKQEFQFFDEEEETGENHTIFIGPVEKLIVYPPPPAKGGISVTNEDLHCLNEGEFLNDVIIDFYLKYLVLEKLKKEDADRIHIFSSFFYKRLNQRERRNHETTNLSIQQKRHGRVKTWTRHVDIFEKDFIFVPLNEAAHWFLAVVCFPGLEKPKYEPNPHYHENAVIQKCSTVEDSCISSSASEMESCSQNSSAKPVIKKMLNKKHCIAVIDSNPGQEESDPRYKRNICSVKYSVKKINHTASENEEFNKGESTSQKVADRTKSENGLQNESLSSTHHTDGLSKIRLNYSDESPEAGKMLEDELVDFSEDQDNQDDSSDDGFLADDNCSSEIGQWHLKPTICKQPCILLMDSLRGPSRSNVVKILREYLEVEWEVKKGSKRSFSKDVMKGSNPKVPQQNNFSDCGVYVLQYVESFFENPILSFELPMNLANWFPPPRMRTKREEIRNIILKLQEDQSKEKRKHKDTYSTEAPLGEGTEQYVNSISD

[12] = molecular target: T7, Sentrin-specific protease 8 (Homo sapiens, UniProt Q96LD8); experiment: SENP8 protease inhibitors, SAR follow-up, biochemical, luminescence (AID 504501); format: functional
T7 sequence (Q96LD8 whole entry): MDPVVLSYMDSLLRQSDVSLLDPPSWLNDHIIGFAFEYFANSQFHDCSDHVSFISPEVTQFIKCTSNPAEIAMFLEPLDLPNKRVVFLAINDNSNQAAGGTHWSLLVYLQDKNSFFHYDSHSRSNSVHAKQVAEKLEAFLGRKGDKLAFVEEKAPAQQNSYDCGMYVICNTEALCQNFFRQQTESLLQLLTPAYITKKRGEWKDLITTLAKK

[13] = miR-122 activators in hepatoma reporter cells, dose response, cell-based, Huh7 psiCHECK-miR122, Renilla luciferase, cherry-picked (AID 651956); format: functional;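 further: huh7 hepatoma cells stably carrying a psiCHECK-2 miR-122 sensor plasmid; renilla luciferase signal reporting endogenous miR-122 activity after 48 h compound exposure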
[14] = molecular target: Albumin (Bos taurus, UniProt P02769); experiment: Counterscreen for inhibitors of T-cell receptor (TCR)-CD3 interaction: Fluorescence-based biochemical high throughput dose response assay to identify inhibitors of T-cell receptor (TCR)-CD3 interaction using a TAMRA-labeled BSA probe.; format: functional
Sequence of Albumin (P02769 whole entry): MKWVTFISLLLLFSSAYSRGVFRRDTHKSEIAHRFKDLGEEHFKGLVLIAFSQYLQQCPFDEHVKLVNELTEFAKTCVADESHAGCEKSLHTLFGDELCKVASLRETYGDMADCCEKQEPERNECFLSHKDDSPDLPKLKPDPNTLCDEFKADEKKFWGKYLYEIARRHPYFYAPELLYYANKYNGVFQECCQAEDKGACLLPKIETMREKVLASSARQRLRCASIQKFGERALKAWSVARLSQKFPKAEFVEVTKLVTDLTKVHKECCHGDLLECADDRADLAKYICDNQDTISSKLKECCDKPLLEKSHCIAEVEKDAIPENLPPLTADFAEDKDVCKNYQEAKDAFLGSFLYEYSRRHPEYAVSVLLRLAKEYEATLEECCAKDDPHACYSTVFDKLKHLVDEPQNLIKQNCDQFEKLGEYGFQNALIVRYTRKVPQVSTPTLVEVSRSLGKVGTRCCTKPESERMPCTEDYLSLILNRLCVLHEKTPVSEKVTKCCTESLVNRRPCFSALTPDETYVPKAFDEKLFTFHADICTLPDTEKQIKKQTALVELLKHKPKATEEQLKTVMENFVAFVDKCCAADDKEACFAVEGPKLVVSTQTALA

CCOc1cccc(C2C(C(=O)c3ccc(C)o3)=C(O)C(=O)N2c2nccs2)c1 (stereo not given)
EC50 [1]: 1.41 µM (inconclusive) | EC50 [2]: 16.9 µM (active) | EC50 [3]: > 99 µM (inactive) | EC50 [4]: 1.27 µM (active)

C[C@@H]1CN([C@@H](C)CO)C(=O)c2cccc(NC(=O)Nc3ccc(C(F)(F)F)cc3)c2O[C@H]1CN(C)Cc1ccc(Cl)c(Cl)c1
AC50 [5]: 0.919 µM (active)

COC1=C(C)C(=O)C2=C(C1=O)C1C3CC4=C(C(=O)C(OC)=C(C)C4=O)C(CNC(=O)C(C)O)N3C(C#N)C(C2)N1C (stereo not given)
GI50 [6]: < 0.01 µM (active) | GI50 [7]: < 0.01 µM (active) | GI50 [8]: 0.203 µM (active)

COC(=O)c1ccc(/N=N/N(C)COc2ccc([N+](=O)[O-])cc2)cc1
GI50 [6]: 37.7 µM (inactive) | GI50 [7]: 40.2 µM (inactive) | GI50 [8]: 23.6 µM (inactive)

C[C@@H]1CN([C@H](C)CO)C(=O)Cc2cc(NC(=O)Cc3cn(C)c4ccccc34)ccc2O[C@@H]1CN(C)Cc1ccc(Cl)c(Cl)c1
AC50 [5]: 5.18 µM (active)

COc1ccc(C(=O)NN=c2c(=O)c3ccccc3c2=O)cc1
IC50 [9]: > 99 µM (inactive) | IC50 [10]: > 99 µM (inactive) | IC50 [11]: 4.15 µM (active) | IC50 [12]: > 99 µM (inactive)

C[C@H]1CN([C@@H](C)CO)C(=O)c2cc(C#CC3CCCC3)cnc2O[C@H]1CN(C)C(=O)Cc1ccccn1
AC50 [13]: 21.3 µM (active)

CC(=O)c1cccc(NC(=O)C(OC(=O)c2cccc(S(=O)(=O)N(C)c3ccccc3)c2)c2ccccc2)c1 (stereo not given)
IC50 [14]: > 94.1 µM (inactive)

O=C1ON(Cc2ccccc2)C(c2ccccc2)N1c1ccccc1 (stereo not given)
GI50 [6]: 7.45 µM (inactive) | GI50 [7]: > 100 µM (inactive) | GI50 [8]: 54 µM (inactive)

O=C(O)CCN1C(=O)/C(=C/c2cccc(OCC(=O)Nc3ccc(Cl)cc3)c2)SC1=S
IC50 [9]: 78.2 µM (active) | IC50 [10]: > 99 µM (inactive) | IC50 [11]: 62.1 µM (active) | IC50 [12]: 92.8 µM (active)

C/C=C/c1ccc([C@@H]2[C@@H](CO)N(C(=O)Cc3cccnc3)[C@H]2CNC(C)=O)cc1
AC50 [13]: 28.6 µM (active)

Fc1ccc(N/N=C/c2c[nH]c3ccccc23)cc1
IC50 [9]: 27.2 µM (active) | IC50 [10]: > 99 µM (inactive) | IC50 [11]: 42.2 µM (active) | IC50 [12]: 45.2 µM (active)

O=S(=O)(O)c1ccc(/N=N\c2ccc(/N=N/c3ccc(/C=C/c4ccc(/N=[N+](\[O-])c5ccc(/C=C/c6ccc(/N=N/c7ccc(/N=N/c8ccc(S(=O)(=O)O)cc8)c8ccccc78)cc6S(=O)(=O)O)c(S(=O)(=O)O)c5)cc4S(=O)(=O)O)c(S(=O)(=O)O)c3)c3ccccc23)cc1
GI50 [6]: > 100 µM (inactive) | GI50 [7]: > 100 µM (inactive)

O=C(Nc1ccc(F)cc1)c1ccc2c(c1)OCO2
IC50 [9]: 2.75 µM (active) | IC50 [10]: 1.92 µM (active) | IC50 [11]: 7.53 µM (active) | IC50 [12]: 8.03 µM (active)

O=NN1C(c2ccccc2)CCCC1c1ccccc1 (stereo not given)
GI50 [6]: 27.5 µM (inactive) | GI50 [7]: > 63.5 µM (inactive) | GI50 [8]: 31.8 µM (inactive)

C[C@H](CO)N1C[C@H](C)[C@H](CN(C)CC2CCCCC2)Oc2ccc(NC(=O)Nc3ccc(C(F)(F)F)cc3)cc2CC1=O
AC50 [5]: 2.72 µM (active)

From ChEMBL document CHEMBL1201862, “PubChem BioAssay data set” (2004)
